In PubChem BioAssay (NCI):
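Cultured in 96-well plates, cells were exposed to test compound for 48 hours across five concentrations. TGI: concentration producing complete growth inhibition.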

Columns and labels:
Assay in all cases: inhibition of tumour cell growth, NCI panel, 48 h
786-0 renal = tested on: 786-0 renal
A498 renal = tested on: A498 renal
A549 NSCLC = tested on: A549 NSCLC
ACHN renal = tested on: ACHN renal
CAKI-1 renal = tested on: CAKI-1 renal
CCRF-CEM leukemia = tested on: CCRF-CEM leukemia
COLO 205 colon = tested on: COLO 205 colon
DU-145 prostate = tested on: DU-145 prostate
EKVX NSCLC = tested on: EKVX NSCLC
HCC-2998 colon = tested on: HCC-2998 colon
HCT-116 colon = tested on: HCT-116 colon
HCT-15 colon = tested on: HCT-15 colon
HL-60(TB) leukemia = tested on: HL-60(TB) leukemia
HOP-62 NSCLC = tested on: HOP-62 NSCLC
HOP-92 NSCLC = tested on: HOP-92 NSCLC
HS 578T breast = tested on: HS 578T breast
HT29 colon = tested on: HT29 colon
IGROV1 ovarian = tested on: IGROV1 ovarian
K-562 leukemia = tested on: K-562 leukemia
KM12 colon = tested on: KM12 colon
LOX IMVI melanoma = tested on: LOX IMVI melanoma
M14 melanoma = tested on: M14 melanoma
MALME-3M melanoma = tested on: MALME-3M melanoma
MCF7 breast = tested on: MCF7 breast
MDA-MB-231 breast = tested on: MDA-MB-231 breast
MDA-MB-435 = tested on: MDA-MB-435
MDA-N = tested on: MDA-N
MOLT-4 leukemia = tested on: MOLT-4 leukemia
NCI-H226 lung = tested on: NCI-H226 lung
NCI-H23 lung = tested on: NCI-H23 lung
NCI-H460 lung = tested on: NCI-H460 lung
NCI-H522 lung = tested on: NCI-H522 lung
NCI/ADR-RES ovarian = tested on: NCI/ADR-RES ovarian
OVCAR-3 ovarian = tested on: OVCAR-3 ovarian
OVCAR-5 ovarian = tested on: OVCAR-5 ovarian
OVCAR-8 ovarian = tested on: OVCAR-8 ovarian
PC-3 prostate = tested on: PC-3 prostate
RXF 393 renal = tested on: RXF 393 renal
SF-268 CNS = tested on: SF-268 CNS
SF-295 CNS = tested on: SF-295 CNS
SF-539 CNS = tested on: SF-539 CNS
SK-MEL-2 melanoma = tested on: SK-MEL-2 melanoma
SK-MEL-28 melanoma = tested on: SK-MEL-28 melanoma
SK-MEL-5 melanoma = tested on: SK-MEL-5 melanoma
SK-OV-3 ovarian = tested on: SK-OV-3 ovarian
SN12C renal = tested on: SN12C renal
SNB-19 CNS = tested on: SNB-19 CNS
SNB-75 CNS = tested on: SNB-75 CNS
SR leukemia = tested on: SR leukemia
SW-620 colon = tested on: SW-620 colon
T-47D breast = tested on: T-47D breast
TK-10 renal = tested on: TK-10 renal
U251 CNS = tested on: U251 CNS
UACC-257 melanoma = tested on: UACC-257 melanoma
UACC-62 melanoma = tested on: UACC-62 melanoma
UO-31 renal = tested on: UO-31 renal
BT-549 breast = tested on: BT-549 breast
OVCAR-4 ovarian = tested on: OVCAR-4 ovarian
RPMI-8226 leukemia = tested on: RPMI-8226 leukemia

Molecule c1ccc([P+](CCN2Cc3ccccc3C2)(c2ccccc2)c2ccccc2)cc1 has a TGI (786-0 renal) of 44.4 µM, a TGI (A498 renal) of 55.6 µM and a TGI (A549 NSCLC) greater than 100 µM. It also gave a TGI (ACHN renal) of 23.1 µM, a TGI (CAKI-1 renal) greater than 100 µM and a TGI (CCRF-CEM leukemia) of 40.5 µM. For the same molecule, the TGI (COLO 205 colon) was 3.45 µM, the TGI (DU-145 prostate) was 45.6 µM and the TGI (EKVX NSCLC) was greater than 100 µM. It also gave a TGI (HCC-2998 colon) of 15.9 µM, a TGI (HCT-116 colon) of 20.9 µM and a TGI (HCT-15 colon) of 36.2 µM. It also gave a TGI (HL-60(TB) leukemia) of 10.5 µM, a TGI (HOP-62 NSCLC) of 45.3 µM and a TGI (HOP-92 NSCLC) of 6.41 µM. For the same molecule, the TGI (HS 578T breast) was greater than 100 µM, the TGI (HT29 colon) was 22.2 µM and the TGI (IGROV1 ovarian) was 5.87 µM. The TGI (K-562 leukemia) was greater than 100 µM, the TGI (KM12 colon) was 16 µM and the TGI (LOX IMVI melanoma) was 33 µM. The TGI (M14 melanoma) was 23 µM, the TGI (MALME-3M melanoma) was 25.1 µM and the TGI (MCF7 breast) was 14.4 µM. The TGI (MDA-MB-231 breast) was 16.2 µM, the TGI (MDA-MB-435) was 13.7 µM and the TGI (MDA-N) was 14.3 µM. The TGI (MOLT-4 leukemia) was greater than 100 µM, the TGI (NCI-H226 lung) was 31.7 µM and the TGI (NCI-H23 lung) was greater than 100 µM. It also gave a TGI (NCI-H460 lung) greater than 100 µM, a TGI (NCI-H522 lung) of 12.2 µM and a TGI (NCI/ADR-RES ovarian) greater than 100 µM. The TGI (OVCAR-3 ovarian) was 18.1 µM, the TGI (OVCAR-5 ovarian) was 57 µM and the TGI (OVCAR-8 ovarian) was 7.95 µM. It also gave a TGI (PC-3 prostate) greater than 100 µM, a TGI (RXF 393 renal) of 22.3 µM and a TGI (SF-268 CNS) of 30.1 µM. The TGI (SF-295 CNS) was 83.9 µM, the TGI (SF-539 CNS) was 24.4 µM and the TGI (SK-MEL-2 melanoma) was 5.41 µM. For the same molecule, the TGI (SK-MEL-28 melanoma) was 9.6 µM, the TGI (SK-MEL-5 melanoma) was 11.3 µM and the TGI (SK-OV-3 ovarian) was 66.2 µM. The TGI (SN12C renal) was 32.8 µM, the TGI (SNB-19 CNS) was greater than 100 µM and the TGI (SNB-75 CNS) was 8.71 µM. It also gave a TGI (SR leukemia) of 52 µM, a TGI (SW-620 colon) of 25.8 µM and a TGI (T-47D breast) of 24.3 µM. It also gave a TGI (TK-10 renal) of 41.5 µM, a TGI (U251 CNS) of 19.5 µM and a TGI (UACC-257 melanoma) of 12.4 µM. The TGI (UACC-62 melanoma) was 13.1 µM and the TGI (UO-31 renal) was 34.6 µM.

In the case of CCOC(=O)N/N=C(\Cc1ccccc1)OCC, the TGI (786-0 renal) was greater than 100 µM, the TGI (A549 NSCLC) was greater than 100 µM and the TGI (ACHN renal) was greater than 100 µM. The TGI (BT-549 breast) was greater than 100 µM, the TGI (CCRF-CEM leukemia) was greater than 100 µM and the TGI (COLO 205 colon) was greater than 100 µM. It also gave a TGI (DU-145 prostate) greater than 100 µM, a TGI (EKVX NSCLC) greater than 100 µM and a TGI (HCC-2998 colon) greater than 100 µM. It also gave a TGI (HCT-116 colon) greater than 100 µM, a TGI (HCT-15 colon) greater than 100 µM and a TGI (HOP-62 NSCLC) greater than 100 µM. It also gave a TGI (HOP-92 NSCLC) greater than 100 µM, a TGI (HT29 colon) greater than 100 µM and a TGI (IGROV1 ovarian) greater than 100 µM. It also gave a TGI (K-562 leukemia) greater than 100 µM, a TGI (KM12 colon) greater than 100 µM and a TGI (LOX IMVI melanoma) greater than 100 µM. The TGI (M14 melanoma) was greater than 100 µM, the TGI (MCF7 breast) was greater than 100 µM and the TGI (MDA-MB-231 breast) was greater than 100 µM. It also gave a TGI (MDA-MB-435) greater than 100 µM, a TGI (MDA-N) greater than 100 µM and a TGI (MOLT-4 leukemia) greater than 100 µM. It also gave a TGI (NCI-H23 lung) greater than 100 µM, a TGI (NCI-H522 lung) greater than 100 µM and a TGI (NCI/ADR-RES ovarian) greater than 100 µM. It also gave a TGI (OVCAR-3 ovarian) greater than 100 µM, a TGI (OVCAR-4 ovarian) greater than 100 µM and a TGI (OVCAR-5 ovarian) greater than 100 µM. It also gave a TGI (OVCAR-8 ovarian) greater than 100 µM, a TGI (PC-3 prostate) greater than 100 µM and a TGI (RPMI-8226 leukemia) greater than 100 µM. For the same molecule, the TGI (RXF 393 renal) was greater than 100 µM, the TGI (SF-268 CNS) was greater than 100 µM and the TGI (SF-295 CNS) was greater than 100 µM. It also gave a TGI (SF-539 CNS) greater than 100 µM, a TGI (SK-MEL-2 melanoma) greater than 100 µM and a TGI (SK-MEL-5 melanoma) greater than 100 µM. It also gave a TGI (SK-OV-3 ovarian) greater than 100 µM, a TGI (SN12C renal) greater than 100 µM and a TGI (SNB-19 CNS) greater than 100 µM. For the same molecule, the TGI (SNB-75 CNS) was greater than 100 µM, the TGI (SR leukemia) was greater than 100 µM and the TGI (SW-620 colon) was greater than 100 µM. It also gave a TGI (TK-10 renal) greater than 100 µM, a TGI (U251 CNS) greater than 100 µM and a TGI (UACC-257 melanoma) greater than 100 µM. It also gave a TGI (UACC-62 melanoma) greater than 100 µM and a TGI (UO-31 renal) greater than 100 µM.

CC1(CO)OC(n2cnc3cncnc32)CC1O (configuration not stated) showed a TGI (786-0 renal) greater than 100 µM, a TGI (A498 renal) greater than 100 µM and a TGI (A549 NSCLC) greater than 100 µM. The TGI (ACHN renal) was greater than 100 µM, the TGI (BT-549 breast) was greater than 100 µM and the TGI (CAKI-1 renal) was greater than 100 µM. It also gave a TGI (CCRF-CEM leukemia) greater than 100 µM, a TGI (COLO 205 colon) greater than 100 µM and a TGI (DU-145 prostate) greater than 100 µM. It also gave a TGI (EKVX NSCLC) greater than 100 µM, a TGI (HCC-2998 colon) greater than 100 µM and a TGI (HCT-116 colon) greater than 100 µM. The TGI (HCT-15 colon) was greater than 100 µM, the TGI (HL-60(TB) leukemia) was greater than 100 µM and the TGI (HOP-62 NSCLC) was greater than 100 µM. It also gave a TGI (HOP-92 NSCLC) greater than 100 µM, a TGI (HT29 colon) greater than 100 µM and a TGI (IGROV1 ovarian) greater than 100 µM. For the same molecule, the TGI (K-562 leukemia) was greater than 100 µM, the TGI (KM12 colon) was greater than 100 µM and the TGI (M14 melanoma) was greater than 100 µM. For the same molecule, the TGI (MALME-3M melanoma) was greater than 100 µM, the TGI (MCF7 breast) was greater than 100 µM and the TGI (MDA-MB-231 breast) was greater than 100 µM. For the same molecule, the TGI (MDA-MB-435) was greater than 100 µM, the TGI (MDA-N) was greater than 100 µM and the TGI (MOLT-4 leukemia) was greater than 100 µM. For the same molecule, the TGI (NCI-H226 lung) was greater than 100 µM, the TGI (NCI-H23 lung) was greater than 100 µM and the TGI (NCI-H460 lung) was greater than 100 µM. The TGI (NCI-H522 lung) was greater than 100 µM, the TGI (NCI/ADR-RES ovarian) was greater than 100 µM and the TGI (OVCAR-3 ovarian) was greater than 100 µM. For the same molecule, the TGI (OVCAR-4 ovarian) was greater than 100 µM, the TGI (OVCAR-5 ovarian) was greater than 100 µM and the TGI (OVCAR-8 ovarian) was greater than 100 µM. It also gave a TGI (PC-3 prostate) greater than 100 µM, a TGI (RPMI-8226 leukemia) greater than 100 µM and a TGI (RXF 393 renal) greater than 100 µM. The TGI (SF-268 CNS) was greater than 100 µM, the TGI (SF-295 CNS) was greater than 100 µM and the TGI (SF-539 CNS) was greater than 100 µM. The TGI (SK-MEL-2 melanoma) was greater than 100 µM, the TGI (SK-MEL-28 melanoma) was greater than 100 µM and the TGI (SK-MEL-5 melanoma) was greater than 100 µM. The TGI (SK-OV-3 ovarian) was greater than 100 µM, the TGI (SN12C renal) was greater than 100 µM and the TGI (SNB-19 CNS) was greater than 100 µM. The TGI (SR leukemia) was greater than 100 µM, the TGI (SW-620 colon) was greater than 100 µM and the TGI (T-47D breast) was greater than 100 µM. The TGI (TK-10 renal) was greater than 100 µM, the TGI (U251 CNS) was greater than 100 µM and the TGI (UACC-257 melanoma) was greater than 100 µM. For the same molecule, the TGI (UACC-62 melanoma) was greater than 100 µM and the TGI (UO-31 renal) was greater than 100 µM.
